{
  "source": "patent US20230218573A1",
  "about": "“INDOLE COMPOUNDS FOR THE TREATMENT OF NEURODEGENERATIVE DISEASES” (GALYAN BIO, INC., priority 2020, published 2023)",
  "key": {"[1]": {"system": "Htt14A2.6 PC12 cells (mHttex1-GFP)", "test": "mHTT aggregation by filter retardation assay in Htt14A2.6 PC12 cells", "type": "cell-based", "settings": "24 hour treatment, different concentrations", "experimental": "Compounds from the Biacore screening were selected for measurement of aggregation in a cell model Htt14A2.6 PC12. Htt14A2.6 PC12 cells express a GFP- tagged 97Q mHtt exon 1 fusion protein (mHttex1-GFP) in the presence of ponasterone A. Htt14A2.6 PC12 cells were grown in medium containing 5 µM ponasterone A for 20 hours prior to treatment with the compounds. Htt14A2.6 PC12 cells were plated at 50~60% confluency. Compound 22 was tested at a final concentration of 80 nM, 400 nM and 10 µM in cell culture medium for 24 hours. Htt14A2.6 PC12 cells were harvested, rinsed, homogenized in cold phosphate-buffered saline containing protease inhibitor cocktail, and centrifuged at 16000 g for 30 min at 4° C. twice. About 25 µg total protein of each sample was resolved in 8% SDS PAGE, transferred onto PVDF membrane, blotted with an anti-GFP antibody, and visualized by ECL detection. mHTT aggregates were quantified from the cell lysates by filter retardation assay (Wanker, E.E., et al., Methods Enzymol (1999); 309: 375-386)."}, "[2]": {"system": "STHdh 111/111 striatal cells", "test": "Cell viability (CellTiter Glo) of heat shocked STHdh 111/111 striatal cells", "type": "cell-based, mouse"}, "[3]": {"system": "R6/2 mice of Huntington's disease", "test": "Rotarod latency in R6/2 mice", "type": "in vivo", "settings": "for rotarod performance versus vehicle treated R6/2 mice: 33 mg/kg i.p. QD", "experimental": "Methods - Total of 20 female and male R6/2 mice and 10 female and male wild-type littermate control mice (WT) were used in the study. The mice were genotyped and the R6/2 mice were divided into different treatment groups based on their litter and baseline body weight. The treatment with Vehicle or Compound 22(33 mg/kg; 5 ml/kg, i.p. QD) was started at 4 weeks of age after the baseline behavioral tests (FIG. 10). Body weights were measured at 3 weeks of age and twice a week until the end of the study.\nThe experimental groups were: • Group 1) 10 wild-type mice (mixed gender) treated with Vehicle (5 ml/kg, i.p., QD) starting at 4 weeks of age • Group 2) 10 R6/2 mice (mixed gender) treated with Vehicle (5 ml/kg, i.p., QD) starting at 4 weeks of age • Group 3) 10 R6/2 mice (mixed gender) treated with Compound 22 (33 mg/kg; 5 ml/kg, i.p. QD) starting at 4 weeks of age\n44.3.7 - Compound Delivery and Dosing - Treatment with Compound 22 (33 mg/kg; 5 ml/kg, i.p. QD) or Vehicle was started at age week 4 and continued until the 12 weeks of age. The test articles were handled and stored and the dose formulations were prepared according to detailed instructions provided by the Sponsor.\n44.3.9.1 - Rotarod - The Rotarod test was perfomed at 4 (pre-treatment baseline), 6, 8 and 10 weeks of age. Each testing day included a training trial of 5 min at 4 RPM on the Rotarod apparatus (AccuScan Instruments, Columbus, USA). 30 minutes later, the animals were tested for 3 consecutive accelerating trials of 6 min with the speed changing from 0 to 40 RPM over 360 seconds and with an inter-trial interval of at least 30 min. The latency to fall from the rod was recorded. Mice remaining on the rod for more than 360 s were removed and their time scored as 360 sec.\n10 female R6/2 mice and 10 female wild-type littermate control mice (F1 generation) were bred by Charles River Laboratories, Sulzfeld, Germany by mating (F0 generation) WT males (C57BL/6J; systematically re-infused with pedigreed JAX mice, stock 000664) with ovarian transferred (OT) TG females (JAX, stock 006494). […]"}, "LC3 (autophagic flux)": {"system": "LC3 (autophagic flux)", "test": "Autophagic flux and LC3 stained area in STHdh 111/111 cells", "type": "cell-based, mouse", "experimental": "Staining - Cells were permeabilized with 0.3% Triton X-100 in 4° C. PBS (pH 7.4 from ThermoFisher) for 10 minutes. Then the cells were washed two times with 4° C. PBS. Subsequently, cells are blocked with 3% NGS (normal goat serum from Thermo Fisher) in 4° C. PBS for 1 hour. Cells were incubated with primary antibodies in blocking buffer (PBS, 3% NGS, 0.02% NaN3) over night at 4° C. Primary antibodies were mouse antipolyglutamine monoclonal antibody 3B5H10 (Sigma-Aldrich) at 1:250 dilution and Guinea Pig anti-MAP2 polyclonal antibody (Synaptic Systems) at 1:500 dilution. […]\nFluorescence Imaging - Imaging sessions were performed on a confocal microscope system (Carl Zeiss Microscopy) equipped with a dual spinning disk unit (Yokogawa). […] The fluorescence images obtained of the immunofluorescence labelled tissue sections were quantified with the help of the “Image Processing and Analysis in Java” or short ImageJ software distributed under the GNU General Public License by the NIH (Rueden, C.T. et al., BMC Bioinformatics. 2017 Nov 29;18(1):529), i.e. the edition used was the Fiji distribution (Schindelin, J. et al., Nature methods. 2012 Jun 28;9(7):676-82). […]\nAutophagic flux was calculated as the area stained with LC3 antibody per cell in STHdh 111/111 with autophagy inhibitor NH4Cl minus area stained with LC3 antibody per cell in STHdh 111/111 without the autophagy inhibitor NH4Cl."}},
  "note": "“Also recorded” adds a separate entry of the source.",
  "data": [
    {"molecule": "Cc1[nH]c2ccc(C(=O)NCCN(C(C)C)C(C)C)cc2c1C", "note": "[Compound 22]", "values": [
      {"measurement": "reduction of mHTT aggregation (filter retardation)", "setting": "[1]", "value": "A reduction of aggregation of Htt14A2.6 PC12 was observed; also recorded: A reduction of mHTT in Htt14A2.6 PC12 cells was observed"},
      {"measurement": "viability at 10 µM", "setting": "[2]; Mus musculus, STHdh 111/111, 10 µM, 48 hours treatment, read-out: Cell Viability striatal cells 3h heat shocked", "value": 102, "unit": "%"},
      {"measurement": "cell viability in comparison to pre-heat shock cell viability", "setting": "[2]; STHdh 111/111, 48 hours after 3 hours heat shock", "value": 125, "unit": "%"},
      {"measurement": "cell viability at 24 hours after treatment", "setting": "[2]; STHdh 111/111 after heat shock, versus STHdh 7/7 control cells", "value": "almost equivalent to the cell viability of STHdh 7/7 control cells"},
      {"measurement": "improvement of latency to fall in comparison to untreated model mice", "setting": "[3]; R6/2 mice, 10 weeks of age", "value": 94, "unit": "%"},
      {"measurement": "rotarod performance versus vehicle treated R6/2 mice", "setting": "[3]; female R6/2 mice, 10 weeks of age, 33 mg/kg", "value": "significantly improved rotarod performance; also recorded: almost doubled the latency to fall"},
      {"measurement": "rotarod performance versus vehicle treated R6/2 mice", "setting": "[3]; pooled genders or males", "value": "no significant differences"},
      {"measurement": "autophagic flux", "setting": "LC3 (autophagic flux); STHdh 111/111, LC3 area with NH4Cl minus without NH4Cl", "value": "positive autophagic flux"},
      {"measurement": "LC3 stained area", "setting": "LC3 (autophagic flux); STHdh 111/111 neurons", "value": "decreased"}
    ]}
  ]
}
